Experimental data taken from US20240024346A1, “CD73 INHIBITORS AND PHARMACEUTICAL USES THEREOF” (RISEN (SUZHOU) PHARMA TECH CO., LTD., priority 2020, published 2024).
Like-named read-outs stand apart in the source and are kept apart here.

How the values were obtained:
CD73 protein = target: T1, CD73 protein (Homo sapiens, UniProt P21589); assay: CD73 enzyme inhibition assay (Malachite Green Phosphate Detection Kit); assay type: biochemical; conditions: for IC50: Tris-HCl pH 7.3, read-out: Potency (IC50 class) in CD73 enzyme assay; for inhibitory activity in the CD73 enzyme assay: result in words
T1 construct: purchased Novoprotein C446
T1 sequence (P21589 27-549): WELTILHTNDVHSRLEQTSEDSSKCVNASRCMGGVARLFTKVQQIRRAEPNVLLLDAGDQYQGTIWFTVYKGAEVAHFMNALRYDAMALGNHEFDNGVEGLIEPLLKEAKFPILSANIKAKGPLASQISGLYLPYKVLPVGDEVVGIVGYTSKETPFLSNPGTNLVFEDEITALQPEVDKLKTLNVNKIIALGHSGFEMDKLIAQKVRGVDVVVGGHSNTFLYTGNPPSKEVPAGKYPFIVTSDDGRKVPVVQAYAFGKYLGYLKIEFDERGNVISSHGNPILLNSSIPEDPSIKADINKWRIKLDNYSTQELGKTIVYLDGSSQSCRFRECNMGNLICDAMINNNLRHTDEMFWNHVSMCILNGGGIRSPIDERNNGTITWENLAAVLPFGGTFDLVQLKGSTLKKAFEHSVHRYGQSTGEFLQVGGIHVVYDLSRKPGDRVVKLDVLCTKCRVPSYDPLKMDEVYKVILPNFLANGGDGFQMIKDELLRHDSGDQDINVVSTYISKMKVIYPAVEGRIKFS
Protocol: To evaluate the inhibitory effect of selected compounds on CD73, Malachite Green Phosphate Detection Kit (R&D, Cat #DY996) was used. Briefly, compounds were dissolved and diluted to the desired concentration using phosphate-free buffer (Tris-HCl, pH 7.3). 25 μL of the compound solution was added to an equal volume of CD73 protein solution (2×concentration, 0.5 μg/mL, Novoprotein, Cat #C446), followed by a 5-minute incubation at room temperature. 10 μL of Malachite Green Reagent A was added to each well, mixed thoroughly and incubated for 10 minutes at room temperature. 10 μL of Malachite Green Reagent B was then added to each well, mixed thoroughly and incubated for 20 minutes at room temperature. Finally, the optical density of each well was determined using a microplate reader set to 620 nm.

[1] = Pharmacokinetic evaluation in ICR mice after intravenous injection; assay type: in vivo; conditions: mouse; ICR male mice, 1.0 mg/kg intravenous, plasma
Protocol: A test compound (1.0 mg/kg) was administered to fasted ICR male mice via intravenous injection, and blood samples were collected at time points of 0.08, 0.25, 0.5, 1, 2, 4, 6, 8 and 24 h after the administration. Plasma sample was separated by centrifugation (8000 rpm) and stored at −80° C. until the sample was analyzed. Concentrations of the test compound in the plasma were determined by HPLC-MS/MS: the plasma was dispensed into appropriate tubes containing internal standard and methanol or acetonitrile. The tubes were mixed vigorously for 3 minutes to achieve deproteinization and then centrifuged at 8000 rpm for 5 minutes. The supernatant was transferred to an autosampler vial, injected into the chromatographic system, and quantified on MS/MS detector. Pharmacokinetic parameters including AUC0-4, Cmax, Tmax, t1/2, MRT, Cl and Vd were calculated using WinNonlin 6.3 software. Table 3 summarizes key PK parameters for test compounds (AUC(0-t): the area under the curve from time 0 to time t; AUC(0-∞): the area under the curve from time 0 to infinity; t1/2: Half-life; CL: clearance; C0: the concentration of drug in blood if the drug molecules enter the circulation and are distributed immediately (i.e., at time 0)).

[2] = target: T2, Recombinant human 5′-nucleotidase (hCD73) (Homo sapiens, UniProt P21589); assay: CD73 enzyme inhibition assay (recombinant hCD73, AMP substrate, phosphate detection); assay type: biochemical; conditions: 37° C. 20 min, absorbance 635 nm
T2 sequence (P21589 27-549): T1 sequence (P21589 27-549)
Protocol: Test compound solution preparation: Stock solution of a test compound was prepared in DMSO at 10 mM concentration. A series of preset 10-concentration solutions of a test compound were prepared by diluting the stock solution in 5-fold gradient dilution with DMSO.
Assay buffer (1×): […] Tris, 25 mM NaCl, 1 mM MgCl2, pH 7.5, 0.005% Tween-20 (freshly prepared, and ready for use).
An aliquot of 0.25 μL of compound solution or DMSO (blank control) was added to each test well of a micro well plate. Recombinant human 5′-nucleotidase (hCD73) was diluted to 1 nM in assay buffer; and an aliquot of 25 μL hCD73 (1 nM) solution was added to the corresponding wells of the plate. The contents of the well were well-mixed, and the plate was covered with sealing film, centrifuged at 1000 rpm for 30 sec., followed by incubation at room temperature for 15 min. AMP, the substrate, was diluted to 60 μM concentration in the assay buffer. To each reaction well was added 25 μL of AMP solution. After mixing well, the plate was covered with sealing film, centrifuged at 1000 rpm for 30 sec., and incubated at 37° C. for 20 min. The absorbance signal (end point) was measured on SPARK plate reader at 635 nm (See PiColorLock™ Gold Phosphate Detection System (Abcam) test kit for reference).
The reaction wells containing CD73 enzyme, substrate AMP and DMSO (no compound) were used as positive control, and the reaction wells containing substrate AMP and DMSO but no CD73 enzyme were used as negative control. The percent (%) inhibition at each concentration of compound was calculated based on and relative to the signal in the High and Low control wells contained within each assay plate. The High control wells were considered as 0% inhibition, and the low control wells, which didn't contain any compound but rather DMSO (final concentration=0.5%), as 100% inhibition. IC50 values were obtained using GraphPad Prism software.

human T cell = assay: CD73 cellular assay (T cell stimulation assay: CellTiter-Glo proliferation and IFN-γ ELISA); assay type: cell-based; conditions: human T cells, anti-CD3/CD28, AMP + EHNA, 72 hours
Protocol: Day 2, human T cell seeding: (a) washing the coated plate (from Day 1) with sterilized PBS buffer (2×100 uL); (b) re-suspending T cells and adjusting cell density to 0.5×10^6 cells/mL with growth media (X-VIVO 15+1% Pen/strep+1% glutamine), and seeding 100 μL/well (50,000 cells/well) in 96-well plates; (c) diluting CD28 antibody for 8× working concentration (8 μg/mL) with growth media, giving 1 μg/mL of the final concentration, followed by addition of CD28 antibody (25 μL) to cell plate; incubating the plates under 5% CO2 at 37° C. for 60 min; (d) adding compound (25 μL, 8×dilution with growth media) to cell plate, and incubating the plates under 5% CO2 at 37° C. for 60 min; (e) adding AMP (25 μL) and EHNA (25 μL, 8×dilution with growth media) to cell plate; (f) incubating the plates under 5% CO2 at 37° C. for 72 hours.
Day 5, collecting cell growth media and testing cell proliferation: (a) centrifuging the cell plate (1,000 rpm) for 5 min; (b) harvesting 150 μL of the cell culture media from each well to 96 well plate, followed by measurement of IFN-r expression by ELISA test; (c) taking a portion of the cell culture supernatant for cytokine analysis, removing the remaining supernatant, followed by addition of fresh growth media (X-VIVO 15+1% Pen/strep+1% glutamine, 100 μL); (d) adding Celltiter-Glo solution (50 μL) into each well for the measurement of cell proliferation by: (e) incubating the plates at room temperature for 10 min on a shaker; (f) transferring 100 μL solution into 96-well white plate and taking the readout of the Celltiter-Glo data using a TECAN Reader.

Compound	IC50 (CD73 protein)	clearance [1]	IC50 [2]	further results
O=P(O)(O)CP(=O)(O)OC[C@H]1O[C@@H](n2cnc3c(NCc4ccccc4)nc(Cl)nc32)C(O)C1O (stereo partly drawn) [Compound 1]	< 10 nM	–	–	–
O=P(O)(O)CP(=O)(O)OC[C@H]1O[C@@H](n2cnc3c(NCc4cccc5ccccc45)nc(Cl)nc32)C(O)C1O (stereo partly drawn) [Compound 6]	< 10 nM	–	–	–
O=P(O)(O)CP(=O)(O)OC[C@H]1O[C@@H](n2cnc3c(NCc4ccc5ccccc5c4)nc(Cl)nc32)C(O)C1O (stereo partly drawn) [Compound 7]	< 10 nM	–	–	–
C[C@]12C[C@@H]3C[C@](C)(C1)C[C@@](Nc1nc(Cl)nc4c1ncn4[C@@H]1O[C@H](COP(=O)(O)CP(=O)(O)O)C(O)C1O)(C3)C2 (stereo partly drawn) [Compound 9]	< 10 nM	–	–	–
CCCCCCCCCCCCOC(=O)Nc1nc(Cl)nc2c1ncn2[C@@H]1O[C@H](COP(=O)(O)CP(=O)(O)O)C(O)C1O (stereo partly drawn) [Compound 15]	< 10 nM	–	–	–
O=C(CC12CC3CC(CC(C3)C1)C2)Nc1nc(Cl)nc2c1ncn2[C@@H]1O[C@H](COP(=O)(O)CP(=O)(O)O)C(O)C1O (stereo partly drawn) [Compound 16]	10 to 100 nM	–	–	–
CCCCCCCCCCCCN(CCCCCCCCCCCC)c1nc(Cl)nc2c1ncn2[C@@H]1O[C@H](COP(=O)(O)CP(=O)(O)O)C(O)C1O (stereo partly drawn) [Compound 19]	> 100 nM	–	–	–
O=P(O)(O)CP(=O)(O)OC[C@H]1O[C@@H](n2cnc3c(NC45CC6CC(CC(C6)C4)C5)nc(Cl)nc32)C(O)C1O (stereo partly drawn) [Compound 22]	< 10 nM	–	–	–
CC1(C)[C@@H]2CC[C@@]1(C)C(OC(=O)Nc1nc(Cl)nc3c1ncn3[C@@H]1O[C@H](COP(=O)(O)CP(=O)(O)O)C(O)C1O)C2 (stereo partly drawn) [Compound 23]	10 to 100 nM	–	–	–
O=P(O)(O)CP(=O)(O)OC[C@H]1O[C@@H](n2cnc3c(N4CCC5(CCCCC5)C4)nc(Cl)nc32)C(O)C1O (stereo partly drawn) [Compound 31]	< 10 nM	–	–	–
O=P(O)(O)CP(=O)(O)OC[C@H]1O[C@@H](n2cnc3c(N4C5CCC4CC(O)C5)nc(Cl)nc32)C(O)C1O (stereo partly drawn) [Compound 51]	< 10 nM	–	–	–
C[C@H](Nc1cc(Cl)nc2c1cnn2[C@@H]1O[C@H](COP(=O)(O)CP(=O)(O)O)[C@@H](O)[C@H]1O)c1ccccc1F [Compound a, AB680, reference compound]	–	0.7 mL/min/kg	–	–
O=P(O)(O)CP(=O)(O)OC[C@H]1O[C@@H](n2cnc3c(N4CC(c5ccccc5)c5ccccc54)nc(Cl)nc32)C(O)C1O (stereo partly drawn) [Compound d-38]	–	–	1.92 nM	–
O=P(O)(O)CP(=O)(O)CC[C@H]1O[C@@H](n2cnc3c(NCc4ccccc4)nc(Cl)nc32)C(O)C1O (stereo partly drawn) [a-1]	–	–	–	inhibitory activity in the CD73 enzyme assay (CD73 protein): showed inhibitory activity
C[C@]12C[C@@H]3C[C@](C)(C1)C[C@@](Nc1nc(Cl)nc4c1ncn4[C@@H]1O[C@H](CCP(=O)(O)CP(=O)(O)O)C(O)C1O)(C3)C2 (stereo partly drawn) [a-9]	–	–	–	inhibitory activity in the CD73 enzyme assay (CD73 protein): showed inhibitory activity
O=P(O)(O)CP(=O)(O)CC[C@H]1O[C@@H](n2cnc3c(N4CCC5(CCCCC5)C4)nc(Cl)nc32)C(O)C1O (stereo partly drawn) [a-31]	–	–	–	inhibitory activity in the CD73 enzyme assay (CD73 protein): showed inhibitory activity
O=P(O)(O)CP(=O)(O)OC[C@H]1O[C@@H](n2cnc3c(N4CCC5(CCCc6ccccc65)C4)nc(Cl)nc32)[C@@H](O)C1O (stereo partly drawn) [d-6]	–	2.55 mL/min/kg	–	–
O=P(O)(O)CP(=O)(O)OC[C@H]1O[C@@H](n2cnc3c(N4CC5(CCCCC5)c5ccccc54)nc(Cl)nc32)[C@@H](O)C1O (stereo partly drawn) [d-7]	–	0.0833 mL/min/kg	1.8 nM	–
O=P(O)(O)CP(=O)(O)OC[C@H]1O[C@@H](n2cnc3c(N4CCC5(CCc6ccccc65)C4)nc(Cl)nc32)C(O)C1O (stereo partly drawn) [d-8]	–	–	0.75 nM	–
O=P(O)(O)CP(=O)(O)OC[C@H]1O[C@@H](n2cnc3c(N4CC5(Cc6ccccc6C5)C4)nc(Cl)nc32)[C@@H](O)C1O (stereo partly drawn) [d-9]	–	0.75 mL/min/kg	0.73 nM	–
O=P(O)(O)CP(=O)(O)OC[C@H]1O[C@@H](n2cnc3c(N4CC5(CCCc6ccccc65)C4)nc(Cl)nc32)[C@@H](O)C1O (stereo partly drawn) [d-12]	–	1.7 mL/min/kg	0.4 nM	–
O=P(O)(O)CP(=O)(O)OC[C@H]1O[C@@H](n2cnc3c(N4CC5(CCCC5)c5ccccc54)nc(Cl)nc32)[C@@H](O)C1O (stereo partly drawn) [d-13]	–	0.05 mL/min/kg	1.5 nM	–
O=P(O)(O)CP(=O)(O)OC[C@H]1O[C@@H](n2cnc3c(N4CC5(CCC5)c5ccccc54)nc(Cl)nc32)[C@@H](O)C1O (stereo partly drawn) [d-20]	–	0.133 mL/min/kg	1.29 nM	–
O=P(O)(O)CP(=O)(O)OC[C@H]1O[C@@H](n2cnc3c(N4CCC5(CC4)Cc4ccccc4C5)nc(Cl)nc32)[C@@H](O)C1O (stereo partly drawn) [d-21]	–	2.28 mL/min/kg	1.42 nM	–
O=P(O)(O)CP(=O)(O)OC[C@H]1O[C@@H](n2cnc3c(N4CC5(CCCCCC5)c5ccccc54)nc(Cl)nc32)[C@@H](O)C1O (stereo partly drawn) [d-22]	–	0.1 mL/min/kg	–	–
O=P(O)(O)CP(=O)(O)OC[C@H]1O[C@@H](n2cnc3c(N4CCC(c5ccccc5)(c5ccccc5)C4)nc(Cl)nc32)C(O)C1O (stereo partly drawn) [d-33]	–	–	1.76 nM	EC50 (human T cell; read-out: EC50 CTG (CellTiter-Glo, cell proliferation)): 4.07 nM; EC50 (human T cell; read-out: EC50 IFN-γ (ELISA, indicator for T-cell activity)): 2.53 nM
O=P(O)(O)CP(=O)(O)OC[C@H]1O[C@@H](n2cnc3c(N4CC(c5ccccc5)(c5ccccc5)C4)nc(Cl)nc32)C(O)C1O (stereo partly drawn) [d-35]	–	–	1.39 nM	–
O=P(O)(O)CP(=O)(O)OC[C@H]1O[C@@H](n2cnc3c(N4CC(c5ccccc5)C(c5ccccc5)C4)nc(Cl)nc32)C(O)C1O (stereo partly drawn) [d-36]	–	–	1.86 nM	–
